For 21 compounds, mortality results are on record in patent US20240425502A1, “BICYCLIC HETEROAROMATIC COMPOUNDS AND THEIR USE AS PEST CONTROL AGENTS” (PI INDUSTRIES LTD., priority 2021, published 2024).

Each structure is given as a SMILES string.

Format in all cases: in vivo
One test has as its system Bemisia tabaci. In words: Bemisia tabaci leaf dip test (brinjal leaves, whitefly adults). The following applies: foliar, 72 h after release, dead and moribund combined, compared to untreated control, read-out: percent mortality. How it is done: The leaf dip method was used for testing, wherein the required quantity of the compound was weighed and dissolved in a tube containing a solvent solution. The tube was put on a vortex at 2000 rpm for 90 min for proper mixing and then the mixture was diluted with a 0.01% Triton-X solution to the desired test concentration. Brinjal leaves were dipped in the compound solution for 10 seconds, shade dried for 20 min and then placed, with the abaxial side of the leaf up, on 4 ml of a 1% agar-agar solution in respective container caps. Known numbers of freshly emerged whitefly adults were collected, using a modified aspirator, and released into a perforated container in which the cap containing the treated leaf was placed. The containers were kept in a plant growth chamber at a temperature of 25° C. and a relative humidity of 70%. Observations on dead, moribund and alive adults were recorded 72 h after the release. Percent mortality was calculated by combining dead and moribund adults and comparing the result to the one of the untreated control. The compounds 32 53 58 79 80 81 82 84 87 88 89 94 95 96 101 102 103 104 105 106 107 108 109 112 113 114 115 116 117 118 119 120 123 124 125 126 127 130 135 138 139 140 144 145 147 150 154 156 158 159 164 167 168 169 170 171 188 189 191 198 199 200 201 202 206 207 208 209 210 213 216 223 224 225 227 228 231 232 233 234 235 236 238 242 243 244 246 and 247 recorded≥70 percent mortality @ 300 PPM.

The test system of the next test is Myzus persicae. In words: Myzus persicae leaf dip test (capsicum leaves, third instar nymphs). The following applies: foliar, 72 h after release, dead and moribund combined, compared to untreated control, read-out: percent mortality.
The test system of another test is Nilaparvata lugens. In words: Nilaparvata lugens seedling dip test (paddy seedlings, third instar nymphs). The note with it: 72 h after release, dead and moribund combined, compared to untreated control, read-out: percent mortality.

`O=c1nc2n(Cc3cnc(Cl)s3)cccc-2c(=O)n1-c1ccc(Cl)cc1` [Compound 80, 3-(4-chlorophenyl)-8-((2-chlorothiazol-5-yl)methyl)pyrido[2,3-d]pyrimidine-2,4(3H,8H)-dione]: the mortality at 300 ppm with Bemisia tabaci and with Myzus persicae was at least 70% each time. Consider `O=c1nc2n(Cc3cnc(Cl)nc3)cccc-2c(=O)n1-c1ccc(Cl)cc1` [Compound 82, 3-(4-chlorophenyl)-8-((2-chloropyrimidin-5-yl)methyl)pyrido[2,3-d]pyrimidine-2,4(3H,8H)-dione], for which the mortality at 300 ppm with Bemisia tabaci, in the test on Myzus persicae and in the test on Nilaparvata lugens was at least 70% each time. In the case of `CC(C)n1c(=O)nc2n(Cc3cnc(Cl)nc3)cccc-2c1=O` [Compound 84, 8-((2-chloropyrimidin-5-yl)methyl)-3-isopropylpyrido[2,3-d]pyrimidine-2,4(3H,8H)-dione], the mortality at 300 ppm in the test on Bemisia tabaci and with Myzus persicae was at least 70% each time.

Regarding `O=c1nc2n(Cc3cnc(Cl)s3)cccc-2c(=O)n1-c1cccc(C(F)(F)F)c1` [Compound 88, 8-((2-chlorothiazol-5-yl)methyl)-3-(3-(trifluoromethyl)phenyl)pyrido[2,3-d]pyrimidine-2,4(3H,8H)-dione], the mortality at 300 ppm with Bemisia tabaci, in the test with Myzus persicae and with Nilaparvata lugens was at least 70% each time. In the case of `Cn1cc(-n2c(=O)nc3n(Cc4cnc(Cl)s4)cccc-3c2=O)cn1` [Compound 89, 8-((2-chlorothiazol-5-yl)methyl)-3-(1-methyl-1H-pyrazol-4-yl)pyrido[2,3-d]pyrimidine-2,4(3H,8H)-dione], the mortality at 300 ppm with Bemisia tabaci and with Myzus persicae was at least 70% each time. As for `O=c1nc2n(Cc3cnc(Cl)nc3)cccc-2c(=O)n1-c1cccc(Cl)c1` [Compound 96, 3-(3-chlorophenyl)-8-((2-chloropyrimidin-5-yl)methyl)pyrido[2,3-d]pyrimidine-2,4(3H,8H)-dione], the mortality at 300 ppm with Bemisia tabaci, in the test with Myzus persicae and in the test on Nilaparvata lugens was at least 70% throughout.

`O=c1nc2n(Cc3ccc(Cl)nc3)cccc-2c(=O)n1-c1cc(C(F)(F)F)cc(C(F)(F)F)c1` [Compound 107, 3-(3,5-bis(trifluoromethyl)phenyl)-8-((6-chloropyridin-3-yl)methyl)pyrido[2,3-d]pyrimidine-2,4(3H,8H)-dione]: the mortality at 300 ppm in the test on Bemisia tabaci and with Myzus persicae was at least 70% throughout. As to `O=c1nc2n(Cc3ccc(Cl)nc3)cccc-2c(=O)n1-c1ccc(OC(F)(F)F)cc1` [Compound 126, 8-((6-chloropyridin-3-yl)methyl)-3-(4-(trifluoromethoxy)phenyl)pyrido[2,3-d]pyrimidine-2,4(3H,8H)-dione], the mortality at 300 ppm in the test on Bemisia tabaci and in the test on Myzus persicae was at least 70% in each case. In the case of `O=c1nc2n(Cc3cnc(Cl)nc3)cccc-2c(=O)n1-c1cccc(OC(F)(F)F)c1` [Compound 130, 8-((2-chloropyrimidin-5-yl)methyl)-3-(3-(trifluoromethoxy)phenyl)pyrido[2,3-d]pyrimidine-2,4(3H,8H)-dione], the mortality at 300 ppm with Bemisia tabaci and with Nilaparvata lugens was at least 70% in each case. `Cc1ccc(-n2c(=O)nc3n(Cc4cnc(Cl)nc4)cccc-3c2=O)cc1` [Compound 144, 8-((2-chloropyrimidin-5-yl)methyl)-3-(p-tolyl)pyrido[2,3-d]pyrimidine-2,4(3H,8H)-dione]: the mortality at 300 ppm with Bemisia tabaci is at least 70%. As for `O=c1nc2n(Cc3ccc(C(F)(F)F)nc3)cccc-2c(=O)n1-c1ccc(Cl)cc1` [Compound 145, 3-(4-chlorophenyl)-8-((6-(trifluoromethyl)pyridin-3-yl)methyl)pyrido[2,3-d]pyrimidine-2,4(3H,8H)-dione], the mortality at 300 ppm in the test with Bemisia tabaci was at least 70%. Turning to `O=c1nc2n(Cc3cnc(Cl)nc3)cccc-2c(=O)n1-c1ccc(Cl)cc1F` [Compound 147, 3-(4-chloro-2-fluorophenyl)-8-((2-chloropyrimidin-5-yl)methyl)pyrido[2,3-d]pyrimidine-2,4(3H,8H)-dione], the mortality at 300 ppm with Bemisia tabaci and with Nilaparvata lugens was at least 70% in each case. Turning to `O=c1nc2n(Cc3ccc(C(F)(F)F)nc3)cccc-2c(=O)n1-c1ccc(F)cc1` [Compound 156, 3-(4-fluorophenyl)-8-((6-(trifluoromethyl)pyridin-3-yl)methyl)pyrido[2,3-d]pyrimidine-2,4(3H,8H)-dione], the mortality at 300 ppm in the test on Bemisia tabaci was at least 70%. Same read-out and setting: to `O=c1nc2n(Cc3cnc(Cl)nc3)cccc-2c(=O)n1-c1ccc(Cl)c(Cl)c1` [Compound 158, 8-((2-chloropyrimidin-5-yl)methyl)-3-(3,4-dichlorophenyl)pyrido[2,3-d]pyrimidine-2,4(3H,8H)-dione] belongs at least 70%; to `COc1cc(-n2c(=O)nc3n(Cc4cnc(Cl)s4)cccc-3c2=O)ccc1Cl` [Compound 167, 3-(4-chloro-3-methoxyphenyl)-8-((2-chlorothiazol-5-yl)methyl)pyrido[2,3-d]pyrimidine-2,4(3H,8H)-dione], at least 70%. On to `COc1cc(-n2c(=O)nc3n(Cc4cnc(Cl)nc4)cccc-3c2=O)ccc1Cl` [Compound 171, 3-(4-chloro-3-methoxyphenyl)-8-((2-chloropyrimidin-5-yl)methyl)pyrido[2,3-d]pyrimidine-2,4(3H,8H)-dione], for which the mortality at 300 ppm in the test on Bemisia tabaci and in the test on Nilaparvata lugens was at least 70% in each case. Turning to `O=c1nc2n(Cc3cnc(Cl)nc3)cccc-2c(=O)n1-c1ccccc1F` [Compound 200, 8-((2-chloropyrimidin-5-yl)methyl)-3-(2-fluorophenyl)pyrido[2,3-d]pyrimidine-2,4(3H,8H)-dione], the mortality at 300 ppm with Bemisia tabaci and in the test with Nilaparvata lugens was at least 70% in each case. `O=c1nc2n(Cc3cnc(Cl)nc3)cccc-2c(=O)n1-c1c(F)cccc1F` [Compound 206, 8-((2-chloropyrimidin-5-yl)methyl)-3-(2,6-difluorophenyl)pyrido[2,3-d]pyrimidine-2,4(3H,8H)-dione]: the mortality at 300 ppm with Bemisia tabaci and in the test with Nilaparvata lugens was at least 70% in each case. `O=c1c2cccn(Cc3ccc(Cl)nc3)c-2nc(=S)n1-c1ccc(OC(F)(F)F)cc1` [Compound 209, 8-((6-chloropyridin-3-yl)methyl)-2-thioxo-3-(4-(trifluoromethoxy)phenyl)-2,8-dihydropyrido[2,3-d]pyrimidin-4(3H)-one]: the mortality at 300 ppm in the test on Bemisia tabaci and in the test on Nilaparvata lugens was at least 70% in each case. Regarding `O=c1nc2n(Cc3cnc(Cl)nc3)cccc-2c(=O)n1-c1ccc(Cl)c(C(F)(F)F)c1` [Compound 224, 3-(4-chloro-3-(trifluoromethyl)phenyl)-8-((2-chloropyrimidin-5-yl)methyl)pyrido[2,3-d]pyrimidine-2,4(3H,8H)-dione], the mortality at 300 ppm in the test on Bemisia tabaci and in the test on Nilaparvata lugens was at least 70% throughout.

Consider `O=c1nc2n(Cc3cnc(Cl)nc3)cccc-2c(=O)n1-c1ccc(OC(F)(F)F)c(Cl)c1` [Compound 227, 3-(3-chloro-4-(trifluoromethoxy)phenyl)-8-((2-chloropyrimidin-5-yl)methyl)pyrido[2,3-d]pyrimidine-2,4(3H,8H)-dione], for which the mortality at 300 ppm in the test with Bemisia tabaci is at least 70%.
